According to ChEMBL document CHEMBL1201862, “PubChem BioAssay data set” (2004):
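Values below derive from 48-hour exposures of cells grown in 96-well plates, with endpoints linearly interpolated between the two concentrations bracketing the appropriate inhibition level. GI50 = concentration required for 50% inhibition of growth.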 Active and inactive are the calls of the source. Cut-off read from the data, not from the text of the source: active = GI50 up to about 1.1 µM and inactive = higher.

Legend:
Experiment in all cases: NCI-60 cell line screen, 48 h
[1] = test system: SK-MEL-28
[2] = test system: RXF 393
[3] = test system: SNB-75
[4] = test system: SW-620
[5] = test system: ACHN
[6] = test system: KM-20L2
[7] = test system: 786-0
[8] = test system: HL-60
[9] = test system: HOP-62
[10] = test system: OVCAR-8
[11] = test system: COLO 205
[12] = test system: M14
[13] = test system: HOP-92
[14] = test system: OVCAR-3
[15] = test system: MOLT-4
[16] = test system: IGROV-1
[17] = test system: A498

SMILES | GI50 [1] | GI50 [2] | GI50 [3] | GI50 [4] | GI50 [5] | GI50 [6] | GI50 [7] | GI50 [8] | GI50 [9] | GI50 [10] | GI50 [11] | GI50 [12] | GI50 [13] | GI50 [14] | GI50 [15] | GI50 [16] | GI50 [17]
CC1(Cc2ccccc2)NC(=S)NC1=O (configuration not stated) | > 100 µM (inactive) | > 100 µM (inactive) | > 100 µM (inactive) | > 100 µM (inactive) | > 100 µM (inactive) | > 100 µM (inactive) | > 100 µM (inactive) | > 100 µM (inactive) | > 100 µM (inactive) | > 100 µM (inactive) | > 100 µM (inactive) | > 100 µM (inactive) | 3.03 µM (inactive) | – | – | – | –
O=C(O)C1(C(=O)O)CC1 | > 100 µM (inactive) | 40 µM (inactive) | > 100 µM (inactive) | > 100 µM (inactive) | > 100 µM (inactive) | > 100 µM (inactive) | > 100 µM (inactive) | > 100 µM (inactive) | > 100 µM (inactive) | > 100 µM (inactive) | > 100 µM (inactive) | 54.7 µM (inactive) | – | > 100 µM (inactive) | > 100 µM (inactive) | > 100 µM (inactive) | > 100 µM (inactive)
CCc1c(C#N)c(=O)[nH]c(=O)n1CCN1CCN(C(=O)NCCCCCCNC(=O)N2CCN(CCn3c(CC)c(C#N)c(=O)[nH]c3=O)CC2)CC1 | > 10 µM (inactive) | – | > 10 µM (inactive) | > 100 µM (inactive) | > 100 µM (inactive) | > 100 µM (inactive) | > 100 µM (inactive) | > 100 µM (inactive) | > 100 µM (inactive) | > 100 µM (inactive) | > 100 µM (inactive) | > 100 µM (inactive) | – | > 100 µM (inactive) | > 100 µM (inactive) | > 100 µM (inactive) | > 100 µM (inactive)
O=C(CSc1nnc(-c2ccc(/N=C\c3ccc(Cl)cc3)cc2)o1)Nc1cccc([N+](=O)[O-])c1 | > 100 µM (inactive) | > 100 µM (inactive) | > 100 µM (inactive) | > 100 µM (inactive) | > 100 µM (inactive) | > 100 µM (inactive) | > 100 µM (inactive) | > 100 µM (inactive) | > 100 µM (inactive) | > 100 µM (inactive) | > 100 µM (inactive) | > 100 µM (inactive) | – | – | > 100 µM (inactive) | – | –
O=C(c1nc2ccc(Cl)cc2nc1O)C(O)c1ccc2c(c1)OCO2 (configuration not stated) | 78.5 µM (inactive) | > 100 µM (inactive) | > 100 µM (inactive) | > 100 µM (inactive) | 65.3 µM (inactive) | 74.5 µM (inactive) | > 100 µM (inactive) | 19.7 µM (inactive) | > 100 µM (inactive) | > 100 µM (inactive) | > 100 µM (inactive) | > 100 µM (inactive) | > 100 µM (inactive) | – | 28.4 µM (inactive) | > 100 µM (inactive) | > 100 µM (inactive)
O=C(c1ccccc1)C(c1ccccc1)C1(O)C(=O)Nc2ccc(Br)cc21 (configuration not stated) | 46.1 µM (inactive) | > 100 µM (inactive) | 40.1 µM (inactive) | 72.1 µM (inactive) | > 100 µM (inactive) | > 100 µM (inactive) | 71.9 µM (inactive) | 16.6 µM (inactive) | 59.3 µM (inactive) | 52.8 µM (inactive) | > 100 µM (inactive) | 30.5 µM (inactive) | 73.5 µM (inactive) | 45.6 µM (inactive) | 23.6 µM (inactive) | 56.4 µM (inactive) | > 100 µM (inactive)
Cc1c(C(=O)C/C(=N/NC(=O)C[N+](C)(C)C)C(=O)Nc2ccc(Cl)cc2)[n+]([O-])c2ccccc2[n+]1[O-] | > 100 µM (inactive) | > 100 µM (inactive) | > 100 µM (inactive) | > 100 µM (inactive) | > 100 µM (inactive) | > 100 µM (inactive) | > 100 µM (inactive) | > 100 µM (inactive) | > 100 µM (inactive) | > 100 µM (inactive) | > 100 µM (inactive) | > 100 µM (inactive) | > 100 µM (inactive) | > 100 µM (inactive) | > 100 µM (inactive) | > 100 µM (inactive) | > 100 µM (inactive)
COc1ccccc1-c1cc(=O)c2cc(C)c(C)c(C(=O)O)c2o1 | > 100 µM (inactive) | – | 40.2 µM (inactive) | > 100 µM (inactive) | > 100 µM (inactive) | > 100 µM (inactive) | > 100 µM (inactive) | > 100 µM (inactive) | > 100 µM (inactive) | > 100 µM (inactive) | > 100 µM (inactive) | > 100 µM (inactive) | > 100 µM (inactive) | > 100 µM (inactive) | > 100 µM (inactive) | > 100 µM (inactive) | > 100 µM (inactive)
O=C1C(=O)N(c2nccs2)C(=O)C(=O)C1c1nc2ccccc2s1 | > 100 µM (inactive) | > 100 µM (inactive) | > 100 µM (inactive) | > 100 µM (inactive) | > 100 µM (inactive) | > 100 µM (inactive) | > 100 µM (inactive) | – | > 100 µM (inactive) | > 100 µM (inactive) | > 100 µM (inactive) | > 100 µM (inactive) | > 100 µM (inactive) | > 100 µM (inactive) | – | > 100 µM (inactive) | –
O=C1N(c2ccc(Cl)cc2)C(=O)C2(SC=NN2Cc2ccccc2)N1c1ccc(Cl)cc1 (configuration not stated) | > 100 µM (inactive) | 37.9 µM (inactive) | 64.7 µM (inactive) | > 100 µM (inactive) | > 100 µM (inactive) | > 100 µM (inactive) | > 100 µM (inactive) | 7 µM (inactive) | > 100 µM (inactive) | > 100 µM (inactive) | > 10 µM (inactive) | > 100 µM (inactive) | > 100 µM (inactive) | 51.1 µM (inactive) | 7.87 µM (inactive) | > 100 µM (inactive) | > 100 µM (inactive)
Cc1cc(Cl)ccc1NC(=O)C(=O)C(C(=O)c1ccc2ccccc2c1)C1OC(=O)c2ccccc21 (configuration not stated) | 9.79 µM (inactive) | 1.83 µM (inactive) | 10.1 µM (inactive) | 7.87 µM (inactive) | 23.2 µM (inactive) | 24 µM (inactive) | 8.91 µM (inactive) | – | 10.5 µM (inactive) | 14.1 µM (inactive) | 13.2 µM (inactive) | 16 µM (inactive) | 14.3 µM (inactive) | 9.98 µM (inactive) | – | 20.8 µM (inactive) | 7.48 µM (inactive)
COc1cccc(N2C(=O)/C(=C/c3ccc(N(CCC#N)CCC#N)cc3)N=C2c2cc([N+](=O)[O-])ccc2Cl)c1 | > 100 µM (inactive) | – | 95.5 µM (inactive) | 33.2 µM (inactive) | 44 µM (inactive) | 97.9 µM (inactive) | 30.5 µM (inactive) | 49.8 µM (inactive) | 50.9 µM (inactive) | 78.7 µM (inactive) | 14.7 µM (inactive) | 42.8 µM (inactive) | – | 35.6 µM (inactive) | 22.3 µM (inactive) | 50.7 µM (inactive) | > 100 µM (inactive)
Nc1c(C(=O)Nc2ccccc2O)[n+]([O-])c2ccccc2[n+]1[O-] | 79.4 µM (inactive) | – | 47.9 µM (inactive) | 21 µM (inactive) | 87.5 µM (inactive) | > 100 µM (inactive) | > 100 µM (inactive) | 25.8 µM (inactive) | > 100 µM (inactive) | 64.1 µM (inactive) | 42.9 µM (inactive) | > 100 µM (inactive) | > 100 µM (inactive) | 29.9 µM (inactive) | 45.8 µM (inactive) | 81.5 µM (inactive) | > 100 µM (inactive)
CN(C)C(=S)Nc1nnc(NC23CC4CC(CC(C4)C2)C3)s1.[O-][Cl+3]([O-])([O-])O | 15 µM (inactive) | 17.1 µM (inactive) | 0.1 µM (active) | 16.7 µM (inactive) | 21.8 µM (inactive) | 11.1 µM (inactive) | 16.6 µM (inactive) | 7.57 µM (inactive) | 18.6 µM (inactive) | 26.7 µM (inactive) | 19.8 µM (inactive) | 16 µM (inactive) | – | 18.7 µM (inactive) | 14.8 µM (inactive) | 30.1 µM (inactive) | 15 µM (inactive)
CCC12C[N+]3([O-])CCc4c([nH]c5ccccc45)C(C(=O)OC)(c4cc5c(cc4OC)N(C)C4C(O)(C(=O)OC)C(OC(C)=O)C6(CC)C=CCN7CCC54C76)CC(C3)C1O2 (configuration not stated) | 0.236 µM (active) | 0.693 µM (active) | 0.242 µM (active) | 0.598 µM (active) | 10.5 µM (inactive) | 0.256 µM (active) | 0.461 µM (active) | – | 23.7 µM (inactive) | 2.67 µM (inactive) | 0.423 µM (active) | 2.17 µM (inactive) | 0.594 µM (active) | 0.337 µM (active) | 0.406 µM (active) | 0.968 µM (active) | 1.55 µM (inactive)
COC1=CC(=O)C(Br)=CC1=O | 19.5 µM (inactive) | 18.2 µM (inactive) | 15.2 µM (inactive) | 23.2 µM (inactive) | – | 33.3 µM (inactive) | 18.6 µM (inactive) | 5.32 µM (inactive) | > 100 µM (inactive) | 26.9 µM (inactive) | 16.7 µM (inactive) | 19 µM (inactive) | 15.9 µM (inactive) | – | 3.3 µM (inactive) | 17.3 µM (inactive) | –
COC(=O)/C(=N\NC(=O)c1ccccc1O)C(C#N)c1ccc(Cl)cc1 (configuration not stated) | 28.3 µM (inactive) | 2.04 µM (inactive) | – | 44.5 µM (inactive) | 5.85 µM (inactive) | 33.8 µM (inactive) | 18 µM (inactive) | 24.9 µM (inactive) | 14.6 µM (inactive) | 28.1 µM (inactive) | > 100 µM (inactive) | 40.6 µM (inactive) | 89.7 µM (inactive) | 29.9 µM (inactive) | 31.4 µM (inactive) | 7.4 µM (inactive) | > 100 µM (inactive)
